Key:
Test in all cases: In vitro competitive activity-based protein profiling (gel-based, FP-Rh or HT-01 probe)
Assay type in all cases: biochemical
FAAH = molecular target: T1, FAAH (Mus musculus, UniProt O08914); conditions: for inhibition at 10 µM: 10 μM inhibitor, read-out: % Inhibition at 10 μM, B = FAAH; for inhibition at 1 µM: 1 μM inhibitor, read-out: % Inhibition at 1 μM, B = FAAH; for IC50: mouse brain membrane fraction or cell lysates, 30 min preincubation at 37° C., read-out: Mouse (IC50 value, nM) FAAH
T1 construct: Proteomes (mouse brain membrane fraction or cell lysates); from tissue; host or cells: mouse brain membrane fraction (or cell lysates, not specified)
T1 sequence (O08914 1-579): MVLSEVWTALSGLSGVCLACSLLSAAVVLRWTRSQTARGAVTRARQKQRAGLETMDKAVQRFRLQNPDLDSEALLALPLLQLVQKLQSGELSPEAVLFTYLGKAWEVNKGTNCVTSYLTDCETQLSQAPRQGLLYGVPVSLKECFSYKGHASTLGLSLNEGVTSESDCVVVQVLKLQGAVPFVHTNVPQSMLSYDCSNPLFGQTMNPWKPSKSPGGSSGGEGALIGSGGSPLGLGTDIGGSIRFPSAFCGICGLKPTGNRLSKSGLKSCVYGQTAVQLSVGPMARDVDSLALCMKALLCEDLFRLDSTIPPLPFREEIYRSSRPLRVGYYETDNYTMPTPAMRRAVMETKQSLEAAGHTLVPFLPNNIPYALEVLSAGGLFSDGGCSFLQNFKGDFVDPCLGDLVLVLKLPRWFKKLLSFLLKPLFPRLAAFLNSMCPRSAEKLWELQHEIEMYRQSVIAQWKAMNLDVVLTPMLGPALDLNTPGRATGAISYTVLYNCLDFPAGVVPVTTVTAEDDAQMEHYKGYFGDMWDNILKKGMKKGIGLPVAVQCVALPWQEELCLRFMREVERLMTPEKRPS
In short: (§1)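 Mouse brain membrane proteome or cell lysate (1.0 mg/mL protein) was preincubated with inhibitor at varying concentrations for 30 min at 37° C, then labelled with FP-Rh or HT-01 for 30 min at 37° C. After SDS-PAGE, residual hydrolase activity was quantified as in-gel fluorescence of each band.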

MAGL = molecular target: T2, MAGL (Mus musculus, UniProt O35678); conditions: for inhibition at 10 µM: 10 μM inhibitor; for inhibition at 1 µM: 1 μM inhibitor; for IC50: mouse brain membrane fraction or cell lysates, 30 min preincubation at 37° C., read-out: Mouse (IC50 value, nM) MAGL
T2 construct: Proteomes (mouse brain membrane fraction or cell lysates); from tissue; host or cells: mouse brain membrane fraction (or cell lysates, not specified)
T2 sequence (O35678 1-303): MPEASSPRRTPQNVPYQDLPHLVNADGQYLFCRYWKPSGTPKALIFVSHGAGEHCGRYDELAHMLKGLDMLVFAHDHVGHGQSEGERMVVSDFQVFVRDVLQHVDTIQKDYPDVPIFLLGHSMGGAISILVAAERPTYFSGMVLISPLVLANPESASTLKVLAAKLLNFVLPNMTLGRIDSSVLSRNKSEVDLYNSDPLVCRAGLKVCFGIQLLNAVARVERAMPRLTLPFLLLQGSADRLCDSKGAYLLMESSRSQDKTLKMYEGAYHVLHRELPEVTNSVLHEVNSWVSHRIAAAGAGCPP
In short: as §1

PLA2G7 = molecular target: T3, PLA2G7 (Mus musculus, UniProt Q60963); conditions: for inhibition at 1 µM: 1 μM inhibitor, read-out: % Inhibition at 1 μM, D = PLA2G7; for inhibition at 10 µM: 10 μM inhibitor, read-out: % Inhibition at 10 μM, D = PLA2G7; for IC50: mouse brain membrane fraction or cell lysates, 30 min preincubation at 37° C.
T3 construct: Proteomes (mouse brain membrane fraction or cell lysates); from tissue; host or cells: mouse brain membrane fraction (or cell lysates, not specified)
T3 sequence (Q60963 22-440): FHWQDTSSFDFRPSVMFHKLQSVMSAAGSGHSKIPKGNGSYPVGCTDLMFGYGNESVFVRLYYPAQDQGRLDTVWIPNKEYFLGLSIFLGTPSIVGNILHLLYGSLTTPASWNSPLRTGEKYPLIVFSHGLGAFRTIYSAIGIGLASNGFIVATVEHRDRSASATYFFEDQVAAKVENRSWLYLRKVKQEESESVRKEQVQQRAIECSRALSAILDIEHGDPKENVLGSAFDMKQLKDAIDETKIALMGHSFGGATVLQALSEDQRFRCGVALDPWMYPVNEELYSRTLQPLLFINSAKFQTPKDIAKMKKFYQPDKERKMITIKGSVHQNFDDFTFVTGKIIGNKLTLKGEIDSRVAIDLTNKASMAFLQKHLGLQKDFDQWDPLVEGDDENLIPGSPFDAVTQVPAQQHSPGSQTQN
In short: as §1

ABHD6 = molecular target: T4, ABHD6 (Mus musculus, UniProt Q8R2Y0); conditions: for inhibition at 1 µM: 1 μM inhibitor, read-out: % Inhibition at 1 μM, C = ABHD6; for inhibition at 10 µM: 10 μM inhibitor, read-out: % Inhibition at 10 μM, C = ABHD6; for IC50: mouse brain membrane fraction or cell lysates, 30 min preincubation at 37° C., read-out: Mouse (IC50 value, nM) ABHD6
T4 construct: Proteomes (mouse brain membrane fraction or cell lysates); from tissue; host or cells: mouse brain membrane fraction (or cell lysates, not specified)
T4 sequence (Q8R2Y0 1-336): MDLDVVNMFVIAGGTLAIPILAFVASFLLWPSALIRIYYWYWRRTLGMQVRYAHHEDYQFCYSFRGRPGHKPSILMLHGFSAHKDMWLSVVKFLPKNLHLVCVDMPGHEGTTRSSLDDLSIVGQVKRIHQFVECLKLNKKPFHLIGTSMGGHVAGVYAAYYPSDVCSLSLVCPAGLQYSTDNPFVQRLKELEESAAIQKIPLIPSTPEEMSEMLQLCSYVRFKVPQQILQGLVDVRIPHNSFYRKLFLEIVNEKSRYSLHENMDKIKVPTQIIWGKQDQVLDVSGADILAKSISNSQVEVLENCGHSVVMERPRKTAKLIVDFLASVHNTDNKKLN
In short: as §1

| inhibition at 10 µM (FAAH) [%] | inhibition at 10 µM (MAGL) [%] | inhibition at 1 µM (PLA2G7) [%] | inhibition at 10 µM (PLA2G7) [%] | inhibition at 1 µM (ABHD6) [%] | inhibition at 10 µM (ABHD6) [%] | inhibition at 1 µM (FAAH) [%] | inhibition at 1 µM (MAGL) [%] | IC50 (FAAH) [nM] | IC50 (MAGL) [nM] | IC50 (ABHD6) [nM] | IC50 (PLA2G7) [nM] | Structure (SMILES) |
| --- | --- | --- | --- | --- | --- | --- | --- | --- | --- | --- | --- | --- |
| > 75 | > 75 | < 25 | < 25 | < 25 | > 75 | < 25 | < 25 | – | – | – | – | CCN(Cc1ccccc1OC)C(=O)n1cc(Cl)cn1 [Example 127, 4-Chloro-N-ethyl-N-(2-methoxybenzyl)-1H-pyrazole-1-carboxamide] |
| > 75 | > 75 | – | < 25 | – | > 75 | – | – | 100 to 1000 | > 1000 | > 1000 | – | CCN(Cc1cccc(OC)c1)C(=O)n1cc(Cl)cn1 [Example 128, 4-Chloro-N-ethyl-N-(3-methoxybenzyl)-1H-pyrazole-1-carboxamide] |
| > 75 | > 75 | < 25 | < 25 | < 25 | 25 to 75 | > 75 | < 25 | 100 to 1000 | > 1000 | > 1000 | – | CCN(Cc1ccc(OC)cc1)C(=O)n1cc(Cl)cn1 [Example 129, 4-Chloro-N-ethyl-N-(4-methoxybenzyl)-1H-pyrazole-1-carboxamide] |
| – | – | < 25 | – | < 25 | – | < 25 | < 25 | – | – | – | – | CCN(Cc1ccccc1C)C(=O)n1cc(Cl)cn1 [Example 132, 4-Chloro-N-(2-methylbenzyl)-N-ethyl-1H-pyrazole-1-carboxamide] |
| > 75 | > 75 | < 25 | < 25 | < 25 | > 75 | > 75 | < 25 | < 100 | > 1000 | > 1000 | – | CCN(Cc1ccc(C)cc1)C(=O)n1cc(Cl)cn1 [Example 133, 4-Chloro-N-ethyl-N-(4-methylbenzyl)-1H-pyrazole-1-carboxamide] |
| > 75 | > 75 | < 25 | < 25 | < 25 | > 75 | > 75 | 25 to 75 | 100 to 1000 | > 1000 | > 1000 | – | CCN(Cc1cccc(Cl)c1)C(=O)n1cc(Cl)cn1 [Example 134, 4-Chloro-N-(3-chlorobenzyl)-N-ethyl-1H-pyrazole-1-carboxamide] |
| > 75 | > 75 | < 25 | < 25 | < 25 | > 75 | > 75 | 25 to 75 | 100 to 1000 | > 1000 | > 1000 | – | CCN(Cc1cccc(C)c1)C(=O)n1cc(Cl)cn1 [Example 135, 4-Chloro-N-ethyl-N-(3-methylbenzyl)-1H-pyrazole-1-carboxamide] |

More lines, now with the values behind:

| Structure (SMILES) | inhibition at 10 µM (FAAH) [%] | inhibition at 10 µM (MAGL) [%] | inhibition at 1 µM (PLA2G7) [%] | inhibition at 10 µM (PLA2G7) [%] | inhibition at 1 µM (ABHD6) [%] | inhibition at 10 µM (ABHD6) [%] | inhibition at 1 µM (FAAH) [%] | inhibition at 1 µM (MAGL) [%] | IC50 (FAAH) [nM] | IC50 (MAGL) [nM] | IC50 (ABHD6) [nM] | IC50 (PLA2G7) [nM] |
| --- | --- | --- | --- | --- | --- | --- | --- | --- | --- | --- | --- | --- |
| Cc1ccccc1-c1cnn(C(=O)N2CCN(C(c3ccc(Cl)cc3)c3ccc(Cl)cc3)CC2)c1 [Example 122, (4-(Bis(4-chlorophenyl)methyl)piperazin-1-yl)(4-(o-tolyl)-1H-pyrazol-1-yl)methanone] | < 25 | 25 to 75 | 25 to 75 | > 75 | < 25 | > 75 | – | – | – | – | – | – |
| O=C(N1CCN(C(c2ccc(Cl)cc2)c2ccc(Cl)cc2)CC1)n1cc(-c2ccccc2C(F)(F)F)cn1 [Example 123, (4-(Bis(4-chlorophenyl)methyl)piperazin-1-yl)(4-(2-(trifluoromethyl)phenyl)-1H-pyrazol-1-yl)methanone] | < 25 | 25 to 75 | < 25 | 25 to 75 | 25 to 75 | > 75 | – | – | – | – | – | – |
| O=C(N1CCN(C(c2ccc(Cl)cc2)c2ccc(Cl)cc2)CC1)n1cc(-c2ccc(C(F)(F)F)cc2)cn1 [Example 124, (4-(Bis(4-chlorophenyl)methyl)piperazin-1-yl)(4-(4-(trifluoromethyl)phenyl)-1H-pyrazol-1-yl)methanone] | < 25 | 25 to 75 | 25 to 75 | > 75 | > 75 | > 75 | – | – | – | – | – | – |
| CCN(Cc1ccccc1Cl)C(=O)n1cc(Cl)cn1 [Example 130, 4-Chloro-N-(2-chlorobenzyl)-N-ethyl-1H-pyrazole-1-carboxamide] | – | – | < 25 | – | < 25 | – | < 25 | < 25 | – | – | – | – |
| CCN(Cc1ccc(Cl)cc1)C(=O)n1cc(Cl)cn1 [Example 131, 4-chloro-N-(4-chlorobenzyl)-N-ethyl-1H-pyrazole-1-carboxamide] | – | – | < 25 | – | < 25 | – | > 75 | < 25 | < 100 | > 1000 | > 1000 | – |
| O=C(N1CCCCC1)n1cc(-c2ccccc2)cn1 [Example 136, (4-Phenyl-1H-pyrazol-1-yl)(piperidin-1-yl)methanone] | > 75 | < 25 | > 75 | > 75 | > 75 | > 75 | > 75 | < 25 | – | – | – | – |
| Cc1cc(-c2ccccc2)ccc1CN1CCN(C(=O)n2cc(Cl)cn2)CC1 [Example 137, (4-Chloro-1H-pyrazol-1-yl)(4-((3-methylbiphenyl-4-yl)methyl)piperazin-1-yl)methanone] | > 75 | > 75 | < 25 | 25 to 75 | > 75 | > 75 | > 75 | > 75 | < 100 | < 100 | 100 to 1000 | > 1000 |
| Cc1cc(-c2ccccc2)ccc1CN1CCN(C(=O)n2cc(C#N)cn2)CC1 [Example 138, 1-(4-((3-methylbiphenyl-4-yl)methyl)piperazine-1-carbonyl)-1H-pyrazole-4-carbonitrile] | > 75 | > 75 | > 75 | > 75 | > 75 | > 75 | > 75 | > 75 | < 100 | < 100 | < 100 | < 100 |
